The record followed here is US8168667B2 (Galapagos NV, priority 2006, dated 2012).

The target in series [1] is T1, human androgen receptor (hAR) (Homo sapiens, UniProt P10275).
T1 sequence (P10275 1-920): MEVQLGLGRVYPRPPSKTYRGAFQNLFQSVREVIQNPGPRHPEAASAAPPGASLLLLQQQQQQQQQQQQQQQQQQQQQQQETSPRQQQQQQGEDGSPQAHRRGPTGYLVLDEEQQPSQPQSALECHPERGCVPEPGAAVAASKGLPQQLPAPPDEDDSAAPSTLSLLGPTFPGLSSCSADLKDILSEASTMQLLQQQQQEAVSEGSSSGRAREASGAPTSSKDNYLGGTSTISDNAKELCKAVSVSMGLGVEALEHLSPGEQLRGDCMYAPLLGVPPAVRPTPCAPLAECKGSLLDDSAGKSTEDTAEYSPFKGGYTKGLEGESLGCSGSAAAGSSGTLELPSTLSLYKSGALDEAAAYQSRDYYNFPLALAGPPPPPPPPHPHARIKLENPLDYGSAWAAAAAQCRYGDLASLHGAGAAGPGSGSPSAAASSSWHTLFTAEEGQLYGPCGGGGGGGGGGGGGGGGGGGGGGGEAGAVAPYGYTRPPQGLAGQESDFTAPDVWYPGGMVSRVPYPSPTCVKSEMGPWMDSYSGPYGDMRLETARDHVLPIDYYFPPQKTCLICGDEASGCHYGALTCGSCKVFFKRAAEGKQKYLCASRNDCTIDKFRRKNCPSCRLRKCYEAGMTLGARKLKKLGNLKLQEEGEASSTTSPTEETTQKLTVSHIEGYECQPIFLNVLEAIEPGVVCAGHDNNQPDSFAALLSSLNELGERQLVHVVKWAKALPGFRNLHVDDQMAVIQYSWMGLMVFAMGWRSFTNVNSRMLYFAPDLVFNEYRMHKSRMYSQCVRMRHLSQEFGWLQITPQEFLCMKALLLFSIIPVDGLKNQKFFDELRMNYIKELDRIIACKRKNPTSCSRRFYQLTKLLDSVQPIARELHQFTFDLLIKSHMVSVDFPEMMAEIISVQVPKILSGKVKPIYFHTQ
The series can be described thus: Functional response test: hAR transactivation (luciferase reporter) in HALP2 cells. The class given is cell-based. In outline: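 HALP2 cells are HeLa cells stably transfected with CMV-driven hAR and a probasin ARE-luciferase reporter. They were seeded 24 h ahead, then exposed to compounds for 20 hours at 37° C in phenol red-free DMEM with 5% desteroided serum. Luciferase luminescence was measured after lysis; for antagonist mode, compounds were tested against increasing DHT concentrations.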
Background: In a reporter assay the amount or activity of a reporter protein is the signal.

Series [2] deals with castrated immature young rats. The series can be described thus: Adapted model of Hershberger's test (levator ani and ventral prostate weight). It counts as in vivo, Sprague Dawley rats. The settings on record: Rattus norvegicus, po, 96 h. As to the method:
The selective modulating activity of the androgen receptor was tested in a model of castrated immature young rats. This model, which is widely recognised for evaluating the anabolic effects of androgen compounds on the muscles and on the genitalia, has been described by Hershberger et al. 1953 Proc. Soc. Expt. Biol. Med. 83:175.
The method is based on the measurement of the well-known effects of androgens on the growth of the muscles and the accessory male sex organs in animals, and also in men. The consequences of castration appear in the form of a rapid involution and atrophy of the prostate and the seminal vesicles and of the anus-lifting muscle (levator ani). This effect may be completely compensated by an exogeneous administration of androgen, in particular of testosterone. The model is thus used to determine the capacity of the tested molecules to maintain the weight of the accessory sex and muscle organs in immature castrated rats, and therefore their androgenic efficacy.
Immature young Sprague Dawley rats (4 to 5 weeks old) weighing approximately 140-160 g (Charles River, Les Oncins, FRANCE) were distributed randomly in various groups and were kept in an environment at 22±2° C. with an alternating day/night cycle of 12 hours and ad libitum access to food and drink.
On day 0, that is, seven days before commencement of the first treatment, the rats were weighed individually then anaesthetised with an intraperitoneal dose of Ketamine/xylazine (85/15 mg/kg, approximately 2 ml/kg). Each animal was then placed on a sterile field and the abdomen and the scrotum were disinfected with Betadine and 70% alcohol. In the case of the orchidectomised control animals (ORX), the testicles were removed via an incision in the middle of the scrotum. A sterile suture was then made to ligature the supra-testicular portion of the tissue prior to surgical section of each testicle. The groups of animals to be treated by the tested compounds were operated on in an identical manner. In the case of the intact control animals (SHAM), the testicles were similarly extracted and reintroduced delicately to their original location. The site of surgical intervention was then sutured using sterile suture thread, and the site was disinfected again by application of Betadine. Each animal was then kept under a sterile pad until it awoke, before being returned to its cage. The animals were kept in an environment at 22±2° C. with an alternating day/night cycle of 12 hours and ad libitum access to food and drink. The animals were treated with the molecules to be tested from post-surgery day 7 and until day 10 preceding sacrifice (day 11).
The rats were split into groups and treated daily from day 7 to day 10 under the conditions defined below: • 1. SHAM control group: Vehicle (0.5% aqueous methyl cellulose) administered per os. • 2. ORX control group: Vehicle (0.5% aqueous methyl cellulose) administered per os. • 3. Treated ORX group: The tested compounds were administered individually per os in suspension in the vehicle described above, in a dose of 30 mg/kg.
After treatment for 4 successive days, the animals were decapitated using a guillotine. The levator ani and the ventral prostate were removed and weighed individually. For comparing inter-experimental data, the weight of each organ was standardised and expressed in milligrammes per 100 g of the weight of the animal (W). For each organ, the average of the standardised weights of the ORX control group was fixed by definition at 0% and the average of the standardised weights of the SHAM control group was fixed by definition at 100%. The efficacy of each product was expressed as a percentage and calculated using the following formula: (Wtreated−WORX)/(WSHAM−WORX)×100 A subsequent ANOVA test was used for statistical analysis to identify the differences between groups.

Setting [3] is: antagonism, concentration which increases the EC50 of the DHT by a factor of 2, Schild regression, HALP2 cells.
The mark [4] stands for this setting: read-out: anabolic protection efficacy with regard to levator ani.
[5] abbreviates: read-out: androgenic efficacy with regard to the prostate.

The structures appear in SMILES notation. Like-named read-outs stand apart in the source and are kept apart here.

The term melting point denotes the temperature, or range, at which the solid turns liquid. As a reminder, the EC50 is the midpoint of the concentration-response curve. In the case of `CN1C(=O)N(c2ccc(Cl)c(Cl)c2)C(=O)C1(CF)c1ccc(O)cc1` (stereo not shown) [Example 184, 1-(3,4-dichlorophenyl)-4-fluoromethyl-4-(4-hydroxyphenyl)-3-methylimidazolidine-2,5-dione], the melting point turned out to be 167.2 °C. Besides, the EC50 in series [1] (agonism, HALP2 cells (HeLa, hAR + ARE-luciferase), 20 hours at 37° C.) came to 4.9 nM. Also, in series [1] (setting [3]), the “KSchild (nM) potency” value came to 2.8 nM.
`CCN1C(=O)N(c2ccc(C#N)c(C(F)(F)F)c2)C(=O)C1(C)c1ccc(O)cc1` (stereo not shown) [Example 224, 4-[2,5-dioxo-3-ethyl-4-(4-hydroxyphenyl)-4-methylimidazolidin-1-yl]-2-trifluoromethylbenzonitrile] displayed a melting point of 165 °C. Besides, the “KSchild (nM) potency” value in series [1] (setting [3]) was 2 nM.
The compound `C#CCC1(c2ccc(O)cc2)C(=O)N(c2ccc(C#N)c(C(F)(F)F)c2)C(=O)N1C` (stereo not shown) [Example 177.3, 4-[2,5-dioxo-4-(4-hydroxyphenyl)-3-methyl-4-(2-propynyl)imidazolidin-1-yl]-2-trifluoromethylbenzonitrile] yielded a melting point of 122 °C. Moreover, the “KSchild (nM) potency” value in series [1] is recorded as 15 nM.
For the compound `CN1C(=O)N(c2ccc(C#N)c(C(F)(F)F)c2)C(=O)C1(CO)c1ccc(O)cc1` (stereo not shown) [Example 176, 4-[2,5-dioxo-4-hydroxymethyl-4-(4-hydroxyphenyl)-3-methyl-imidazolidin-1-yl]-2-trifluoromethylbenzonitrile], in series [1], the “KSchild (nM) potency” value turned out to be 1.34 nM. The inhibition in vivo at 30 mg/kg fell in the range of 50 to 140% in series [2] (setting [4]) and 5 to 70% in series [2] (setting [5]).
Regarding `CCOCN1C(=O)N(c2ccc(C#N)c(C(F)(F)F)c2)C(=O)C1(C)c1ccc(O)cc1` (stereo not shown) [Example 221, 4-[3-(ethoxymethyl)-4-(4-hydroxyphenyl)-4-methyl-2,5-dioxoimidazolidin-1-yl]-2-trifluoromethylbenzonitrile], the melting point was 143 °C. The “KSchild (nM) potency” value in series [1] is listed as 5.66 nM.
For `CN1C(=O)N(c2ccc(C#N)c(C(F)(F)F)c2)C(=O)C1(C)c1ccc(O)c(Cl)c1` (stereo not shown) [Example 173, 4-[4-(3-chloro-4-hydroxyphenyl)-3,4-dimethyl-2,5-dioxoimidazolidin-1-yl]-2-trifluoromethylbenzonitrile] the same measures were 161.1 °C and 3 nM.
For the compound `C#CCN1C(=S)N(c2ccc(C#N)c(C(F)(F)F)c2)C(=O)C1(C)c1ccc(O)cc1` (stereo not shown) [Example 43, 4-[4-(4-hydroxyphenyl)-4-methyl-5-oxo-3-(2-propynyl)-2-thioxoimidazolidin-1-yl]-2-trifluoromethylbenzonitrile], the melting point stood at 169 °C. Further, the “KSchild (nM) potency” value in series [1] came out at 0.49 nM.
The compound `CN1C(=O)N(c2ccc(C#N)c(C(F)(F)F)c2)C(=O)C1c1ccc(O)cc1` (stereo not shown) [Example 2, 4-[2,5-dioxo-4-(4-hydroxyphenyl)-3-methyl-imidazolidin-1-yl]-2-trifluoromethylbenzonitrile] gave a melting point of 157.4 °C. Also, the “KSchild (nM) potency” value in series [1] came to 9.65 nM.
For `CN1C(=O)N(c2ccc(C#N)c(C(F)(F)F)c2)C(=O)C1(CF)c1ccc(O)cc1` (stereo not shown) [Example 177, 4-[2,5-dioxo-4-fluoromethyl-4-(4-hydroxyphenyl)-3-methylimidazolidin-1-yl]-2-trifluoromethylbenzonitrile], the “KSchild (nM) potency” value in series [1] was determined as 0.72 nM. Further, the inhibition in vivo at 30 mg/kg in series [2] (setting [4]) lay in the range of 50 to 140%; in series [2] (setting [5]) it was 5 to 70%.
On to `CCCN1C(=O)N(c2ccc(C#N)c(C(F)(F)F)c2)C(=O)C1(C)c1ccc(O)cc1` (stereo not shown) [Example 225, 4-[2,5-dioxo-4-(4-hydroxyphenyl)-4-methyl-3-propylimidazolidin-1-yl]-2-trifluoromethylbenzonitrile], for which the melting point came to 125 °C. Also, the “KSchild (nM) potency” value in series [1] is on record as 2.83 nM.
In turn, `CC1(c2ccc(O)cc2)C(=O)N(c2ccc(C#N)c(C(F)(F)F)c2)C(=O)N1CCF` (stereo not shown) [Example 226, 4-[2,5-dioxo-3-(2-fluoroethyl)-4-(4-hydroxyphenyl)-4-methylimidazolidin-1-yl]-2-trifluoromethylbenzonitrile] came in with a melting point of 157 °C. Moreover, the “KSchild (nM) potency” value in series [1] is given as 2.45 nM.
With `COc1cc(N2C(=O)N(C)C(C)(c3ccc(O)cc3)C2=O)ccc1C#N` (stereo not shown) [Example 9, 4-[3,4-dimethyl-2,5-dioxo-4-(4-hydroxyphenyl)imidazolidin-1-yl]-2-methoxybenzonitrile], the “KSchild (nM) potency” value in series [1] amounted to 2.1 nM. Moreover, the inhibition in vivo at 30 mg/kg in series [2] (setting [4]) fell in the range of 50 to 140%; in series [2] (setting [5]), 5 to 70%.
Take `COCN1C(=O)N(c2ccc(C#N)c(C(F)(F)F)c2)C(=O)C1(C)c1ccc(O)cc1` (stereo not shown) [Example 222, 4-[4-(4-hydroxyphenyl)-3-methoxymethyl-4-methyl-2,5-dioxoimidazolidin-1-yl]-2-trifluoromethylbenzonitrile]: the inhibition in vivo at 30 mg/kg in series [2] (setting [4]) was in the range of 50 to 140%; in series [2] (setting [5]) it was 5 to 70%.
Compound `CN1C(=O)N(c2ccc(Cl)c(Cl)c2)C(=O)C1(C)c1ccc(O)cc1` (stereo not shown) [Example 25, 1-(3,4-dichlorophenyl)-3,4-dimethyl-4-(4-hydroxyphenyl)imidazolidine-2,5-dione] showed a melting point of 184 °C. Further, the “KSchild (nM) potency” value in series [1] is given as 10.9 nM.
In the case of `COCN1C(=O)N(c2ccc(C#N)c(OC)c2)C(=O)C1(C)c1ccc(O)cc1` (stereo not shown) [Example 223.1, 4-[4-(4-hydroxyphenyl)-3-methoxymethyl-4-methyl-2,5-dioxoimidazolidin-1-yl]-2-methoxybenzonitrile], the melting point came out at 141 °C. Besides, the “KSchild (nM) potency” value in series [1] was 4 nM.
